Consider 23 molecules from patent publication US8486968B2, “Compounds” (Boehringer Ingelheim International GmbH, priority 2010, dated 2013).

A value given as a limit tells only on which side of the number the result lay.

Assay [1] concerns the target T1, mPGES-1 (Homo sapiens, UniProt O14684).
T1 sequence (O14684 1-152): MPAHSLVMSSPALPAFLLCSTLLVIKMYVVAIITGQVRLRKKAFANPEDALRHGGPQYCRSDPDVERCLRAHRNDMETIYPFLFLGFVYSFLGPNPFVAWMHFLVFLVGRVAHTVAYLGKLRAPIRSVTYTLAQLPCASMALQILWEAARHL
Description: mPGES-1 enzyme assay (HTRF detection of PGE2). In kind it is biochemical. Further details: made in house; host or cells: Rosetta E. coli (membrane/microsome fraction). As for the experimental part: Microsomes from Rosetta E. coli bacteria expressing recombinant human mPGES-1 can be derived as described below:
Inoculate 5 ml LB with Ampicilin (50 μg/ml) and Chloramphenicol (34 μg/ml) with bacteria from freeze culture. Incubate 8 h at 37° C. with 200 rpm. Thereafter, inoculate 500-1000 ml LB containing Amp and Chloro with the 5 ml on culture and grow to OD640 of 0.8-1.0. Chill the culture to +4° C. before induction. Induce the culture with IPTG at a final concentration of 400 μM. Express the protein at room temp 18-23° C. with 200 rpm shaking over night.
The following steps can be performed on the following day: • 1. Spin down the cells in 250 ml centrifuge flasks for 15 min at 7000 rpm (Beckmann Coulte Avanti J-E centrifuge) • 2. Dissolve the pellet from 250 ml culture in 12.5 ml homogenization buffer • 3. (15 mM Tris-HCL pH8, 1 mM EDTA pH8, […], 2.5 mM GSH, 1 Tablet Protease inhibitor per 50 ml buffer) • 4. Disintegrate the cells by sonication, 5×10 seconds at 48% amplitude of a 750 W sonifier • 5. Add 2.5 ml MgCl2 (100 mM) and DNase 12.5 μl (0.8 mg/ml) and incubate on ice for 30 min • 6. Spin down the bacteria debris and save the supernatant, 7000 rpm for 15 min • 7. Isolate the protein containing membranes in the supernatant by ultracentrifugation 120000×g for 2 hour at 4° C. (Sorvall T880 rotor). • 8. Discard the supernatant and dissolve the pellet in 20 mM Potassium phosphate buffer pH 7.4 (KH2PO4 and K2HPO4) buffer by sonication (5×10 s, 30% of a 50 W sonifier) and aliquot the enzyme and store aliquots at −80° C.
Before each experiment is performed an aliquot of the enzyme is thawed and it can then be dissolved in 0.1 M Potassium phosphate buffer pH7.4 (KH2PO4 and K2HPO4) buffer containing 2.5 mM GSH.
The aim of this assay is the determine the affinity of a test compound for the mPGES-1 enzyme.
47 μl of recombinant human mPGES-1 (˜0.5 μg protein/well) containing microsomal suspension in a buffer containing GSH, (2.5 mmol/L L-Glutathione reduced, dissolved in 0.1 mol/L Phosphat Buffer pH 7.4) is dispensed in a 384-well plate and thereafter 1 μl of the test compound(s) is/are added and incubated for 25 minutes at room temperature. The enzyme reaction is started by the addition of 2 μl PGH2 (final conc. 2 μM) dissolved in water-free Diglyme. After 60 seconds the reaction is terminated by addition of a stop solution containing FeCl2 (10 μL 0.074 mol/l FeCl2). The samples are diluted between 1:25 in PBS (Phosphate Buffered Saline). 10 μl of the diluted samples are transferred to 384-well low volume plate. In order to quantify the amount of PGE2 that has been formed, a homogenous time resolved fluorescent (HTRF) detecting of PGE2 has been performed using a commercially available kit from Cisbio according to the manufactures recommendation. This HTRF-based assay has been described in detail (see: Goedken et al., J Biomol Screen, 2008, 13(7), 619-625). Briefly, the diluted samples are mixed with 5 μl PGE2-d2 conjungate and 5 μl anti-PGE2 cryptate conjungate. After an incubation period of the plates over night, the fluorescence is measured by the use of an appropriate microplate reader.
The fluorescence of Europium cryptate (maxex=307 nm, maxem=620 nm) and d2-PGE2 (maxex=620 nm, maxem=665 nm) are measured.
The extent of the specific HTRF is measured as a ratio of the emission intensity at 665 nm vs. that at 620 nm at an excitation puls of 320 nm. The quantification plate contains also wells with different concentrations of PGE2 as calibration curve for the calculation of the PGE2 concentrations from the HTRF ratio values.
From all mPGES enzyme assay the background is subtracted and the IC50 is calculated over a nonlinear regression with conventional software.
On the technique in general: TR-FRET usually uses a lanthanide donor and a delayed reading to cut background.

Assay [2] addresses T1, mPGES-1. Briefly: A549 cell-based assay (PGE2 formation, IL-1β stimulated, 50% human serum). More on the design: host or cells: A549 cells. As for the experimental part: Although the enzymatic assay is a high throughput assay the disadvantage is that it uses a recombinant protein which is not in its natural environment. Accordingly a cellular assay was established in which a cell line of human origin (A549) expressing the mPGES-1 protein was used. In addition in order to mimic the situation in humans in which compounds can be bound to plasma proteins 50% human serum is added in the assay. By having the combination of testing mPGES-1 in a cellular environment and the presence of 50% human serum this assay has a higher relevance to judge the therapeutic potential of a mPGES-inhibitor than the pure enzyme assay.
A549 cells (ATCC: CCL-185) are grown to about 90% confluence in F-12K Nutrient Mixture (Kaighn's Mod. Gibco) containing 10% FBS in a humified incubator at 37° C. and 5% CO2. Cells were detached using Trypsin-EDTA. A549 cells were seeded in a 384-well collagene plate at a density of 7000 cells/well (50 μl) in F-12 medium containing 1% Penicillin-Streptomycin and 50% human serum. The cells were allowed to attach for 3-4 h. After that the cells were incubated for 20-24 h in F-12k medium supplemented with 50% human serum, 1% Penicillin-Streptomycin and containing IL-1β at a final concentration of 5 ng/ml as well as 10 nM arachidonic acid in the presence of a vehicle or a test compound. The total volume is 100 μl.
Concentrations of PGE2 in the cell free medium (10 μl) were measured using a commercially available HTRF kit from Cisbio (as described above). The PGE2 formation in the absence of test compound was taken as 100%.
IC50 values were derived from at 6-8 point titrations using conventional software.

Setting [3] is: recombinant human mPGES-1 microsomes, PGH2 2 μM, Table A, read-out: mPGES-1 inhibitory effect, IC50, enzyme assay.
Setting [4] is: A549 cells, IL-1β 5 ng/ml, 20-24 h, Table B, read-out: mPGES-1 inhibitory effect, IC50, cell assay.
[5] abbreviates: Table C comparison of enzym and cell IC50, read-out: Enzym IC50.
The mark [6] stands for this setting: Table C comparison of enzym and cell IC50, A549 cells, read-out: Cell IC50.

In general, IC50 refers to the concentration at which inhibition is half-maximal. With `CN(Cc1nncn1C)c1nc2c(cc1C(=O)N[C@H]1CC[C@H](C(F)(F)F)CC1)nc(Nc1c(Cl)ccc(CNC(=O)C(C)(C)C)c1Cl)n2C` [Example 21], the IC50 was 4 nM in assay [1] (setting [3]) and 90 nM in assay [2] (setting [4]).

As to `CN(CC1(C)COC1)c1nc2c(cc1C(=O)N[C@H]1CC[C@H](C(F)(F)F)CC1)nc(Nc1c(Cl)ccc(CNC(=O)C(C)(C)C)c1Cl)n2C` [Example 22], the IC50 in assay [1] (setting [3]) was found to be 3 nM; in assay [2] (setting [4]), 15 nM.

`Cn1c(Nc2c(Cl)ccc(CNC(=O)C(C)(C)C)c2Cl)nc2cc(C(=O)N[C@H]3CC[C@H](C(F)(F)F)CC3)c(N(CC3CC3)C3CC3)nc21` [Example 23]: the IC50 was 1 nM in assay [1] (setting [3]) and 5 nM in assay [2] (setting [4]).

Take `Cn1c(Nc2c(Cl)ccc(CNC(=O)C(C)(C)C)c2Cl)nc2cc(C(=O)Nc3ccc(OC(F)(F)F)cc3)c(N3CCC(C(F)(F)F)CC3)nc21` [Example 24, N-(4-Trifluoromethoxyphenyl)-2-{2,6-dichloro-3-[(2,2-dimethyl-propionylamino)-methyl]-phenylamino}-5-[4-trifluoromethyl-piperidinyl]-3-methyl-3H-imidazo[4,5-b]pyridine-6-carboxamide]: the IC50 stood at 1 nM in assay [1] (setting [3]) and 5 nM in assay [2] (setting [4]).

With `CC(C)(C)C(=O)NCc1ccc(Cl)c(Nc2nc3cc(C(=O)N[C@H]4CC[C@H](C(F)(F)F)CC4)c(N4CCOCC4)nc3n2CC(F)F)c1Cl` [Example 25], the IC50 in assay [1] (setting [3]) came out at 4 nM; in assay [2] (setting [4]) it was 7 nM.

With `CN(C)C(=O)Cn1c(Nc2c(Cl)ccc(CNC(=O)C(C)(C)C)c2Cl)nc2cc(C(=O)N[C@H]3CC[C@H](C(F)(F)F)CC3)c(N3CCC(C(F)(F)F)CC3)nc21` [Example 29], the IC50 was determined as 10 nM in assay [1] (setting [3]) and 39 nM in assay [2] (setting [4]).

In the case of `CC(NC(=O)c1cc2nc(Nc3c(Cl)ccc(CNC(=O)C(C)(C)C)c3Cl)n(C)c2nc1N1CCC(C(F)(F)F)CC1)C(F)(F)F` (stereo not shown) [Example 31], the 50% inhibitory concentration (IC50) stood at 3 nM in assay [1] (setting [3]) and 20 nM in assay [2] (setting [4]).

On to `Cn1c(Nc2c(Cl)ccc(CNC(=O)C(C)(C)C)c2Cl)nc2cc(C(=O)NCC(F)(F)F)c(N3CCC(C(F)(F)F)CC3)nc21` [Example 32], for which the IC50 in assay [1] (setting [3]) is 4 nM; in assay [2] (setting [4]), 12 nM.

As to `Cn1c(Nc2c(Cl)ccc(CNC(=O)C(C)(C)C)c2Cl)nc2cc(C(=O)NCCCC(F)(F)F)c(N3CCC(C(F)(F)F)CC3)nc21` [Example 33], the concentration for half-maximal inhibition (IC50) stood at 2 nM in assay [1] (setting [3]) and 8 nM in assay [2] (setting [4]).

Consider `Cn1c(Nc2c(Cl)ccc(CNC(=O)C(C)(C)C)c2Cl)nc2cc(C(=O)NCC(F)(F)C(F)(F)F)c(N3CCC(C(F)(F)F)CC3)nc21` [Example 34], for which the results for the IC50 in assay [1] (setting [3]) and in assay [2] (setting [4]) were 2 nM and 10 nM, respectively.

For `Cn1c(Nc2c(Cl)ccc(CNC(=O)C(C)(C)C)c2Cl)nc2cc(C(=O)NC3CC(F)(F)C3)c(N3CCC(C(F)(F)F)CC3)nc21` [Example 35], the IC50 came to 5 nM in assay [1] (setting [3]) and 16 nM in assay [2] (setting [4]).

On to `Cn1c(Nc2c(Cl)ccc(CNC(=O)C(C)(C)C)c2Cl)nc2cc(C(=O)N[C@H](c3ccccc3)C(F)(F)F)c(N3CCC(C(F)(F)F)CC3)nc21` [Example 36], for which the results for the IC50 in assay [1] (setting [3]) and in assay [2] (setting [4]) were 2 nM and 6 nM, respectively.

As for `Cn1c(Nc2c(Cl)ccc(CNC(=O)C(C)(C)C)c2Cl)nc2cc(C(=O)NC3(c4ccc(F)cc4)CC3)c(N3CCC(C(F)(F)F)CC3)nc21` [Example 37], the results for the IC50 in assay [1] (setting [3]) and in assay [2] (setting [4]) were 3 nM and 8 nM, respectively.

As for `Cn1c(Nc2c(Cl)ccc(CNC(=O)C(C)(C)C)c2Cl)nc2cc(C(=O)NCc3ccc(F)cc3C(F)(F)F)c(N3CCC(C(F)(F)F)CC3)nc21` [Example 38], the IC50 in assay [1] (setting [3]) came out at 2 nM; in assay [2] (setting [4]), 16 nM.

Turning to `Cn1c(Nc2c(Cl)ccc(CNC(=O)C(C)(C)C)c2Cl)nc2cc(C(=O)Nc3cccc(OC(F)(F)F)c3)c(N3CCC(C(F)(F)F)CC3)nc21` [Example 40], the IC50 came to 3 nM in assay [1] (setting [3]) and 13 nM in assay [2] (setting [4]).

Take `Cn1c(Nc2c(Cl)ccc(CNC(=O)C(C)(C)C)c2Cl)nc2cc(C(=O)Nc3ccc(F)c(Cl)c3)c(N3CCC(C(F)(F)F)CC3)nc21` [Example 41]: the values for the IC50 in assay [1] (setting [3]) and in assay [2] (setting [4]) were 1 nM and 2 nM, respectively.

On to `Cn1c(Nc2c(Cl)ccc(CNC(=O)C(C)(C)C)c2Cl)nc2cc(C(=O)NC(c3ccccn3)C(F)(F)F)c(N3CCC(C(F)(F)F)CC3)nc21` (stereo not shown) [Example 42], for which the IC50 in assay [1] (setting [3]) amounted to 2 nM; in assay [2] (setting [4]), 4 nM.

`Cn1c(Nc2c(Cl)ccc(CNC(=O)C(C)(C)C)c2Cl)nc2cc(C(=O)NCc3ncccc3C(F)(F)F)c(N3CCC(C(F)(F)F)CC3)nc21` [Example 43]: the IC50 was 5 nM in assay [1] (setting [3]) and 6 nM in assay [2] (setting [4]).

Take `Cn1c(Nc2c(Cl)ccc(CNC(=O)C(C)(C)C)c2Cl)nc2cc(C(=O)Nc3cccc(C(F)(F)F)n3)c(N3CCC(C(F)(F)F)CC3)nc21` [Example 44]: the IC50 came out at 4 nM in assay [1] (setting [3]) and 56 nM in assay [2] (setting [4]).

Turning to `CC(NC(=O)c1cc2nc(Nc3c(Cl)ccc(CNC(=O)C(C)(C)C)c3Cl)n(C)c2nc1N1CCC(C(F)(F)F)CC1)c1cccs1` (stereo not shown) [Example 45], the IC50 in assay [1] (setting [3]) is 4 nM; in assay [2] (setting [4]), 12 nM.

For the molecule `Cn1c(Nc2c(Cl)ccc(CNC(=O)C(C)(C)C)c2Cl)nc2cc(C(=O)NCC3CC3)c(N3CCC(C(F)(F)F)CC3)nc21` [Example 46], the IC50 in assay [1] (setting [3]) is below 1 nM; in assay [2] (setting [4]), 8 nM.

With `Cn1c(Nc2c(Cl)cc(F)cc2Cl)nc2cc(C(=O)N[C@H]3CC[C@H](C(F)(F)F)CC3)c(OCC(F)F)nc21` [reference compound], the results for the IC50 in assay [1] (setting [5]) and in assay [2] (setting [6]) were 4 nM and 161 nM, respectively.

`Cn1c(Nc2cc(CNC(=O)C(C)(C)C)ccc2Cl)nc2cc(C(=O)N[C@H]3CC[C@H](C(F)(F)F)CC3)c(OCC(F)(F)F)cc21` [reference compound]: the IC50 in assay [1] (setting [5]) was 8 nM; in assay [2] (setting [6]) it was 89 nM.
